# Test results reported in patent publication US6054441A, “Oxypurine nucleosides and their congeners, and acyl derivatives thereof, for improvement of hematopoiesis” (priority 1995, dated 2000).
# How the values were obtained:
# [1] = system: hematopoietic recovery after cyclophosphamide; experiment: Hematopoietic recovery after cyclophosphamide, acyl chain length (Example 38); format: in vivo, Balb/C mice; conditions: day 7; guanosine 5, acyl derivatives 2.5 μmoles/mouse/day i.p.
# Method: Cyclophosphamide (CP) (275 mg/kg, i.p.) was administered to 70 Balb/C female mice weighing approximately 20 grams each. Twenty-four hours later and each day thereafter for a total of 6 days, mice were given a 0.4 ml i.p injection of either physiological saline (controls), Tween 80 (0.2%), guanosine (5 μmoles/mouse/day in 0.2% Tween 80), or 2.5 μmoles per mouse per day of one of the following acylated derivatives of guanosine in 0.2% Tween 80: triacetylguanosine, octanoylguanosine, lauroylguanosine, or palmitoylguanosine. On day 7 following CP administration all 10 animals from each of the 7 groups were bled, and then sacrificed by cervical dislocation. Spleens were removed and weighed, and complete blood counts performed.
# [2] = system: hematopoietic recovery after cyclophosphamide; experiment: Dose-response, hematopoietic recovery after cyclophosphamide (Example 45); format: in vivo, Balb/C mice
# Method: Cyclophosphamide (CP) (275 mg/kg, i.p.) was administered to 45 Balb/C female mice weighing approximately 20 grams each. Twenty-four hours later and each day thereafter for a total of 6 days, mice were given a 0.4 ml i.p. injection of either physiological saline (controls), Tween 80 (0.5%), or one of three different doses of octanoylguanosine ([…]). On day 7 following CP administration all 9 animals from each of the […] were bled and then sacrificed by cervical dislocation. Spleens were removed and weighed, and complete blood cell counts performed.
# [3] = system: hematopoietic recovery after cyclophosphamide; experiment: Histological examination of spleens and blood counts after cyclophosphamide (Example 46); format: in vivo, Balb/C mice; conditions: day 7
# Method: Cyclophosphamide (CP) (275 mg/kg, i.p.) was administered to 30 Balb/C female mice weighing approximately 20 grams each. Twenty-four hours later and each day thereafter for a total of 6 days, mice were given a 0.4 ml i.p. injection of either physiological saline (controls), Tween 80 (0.5%), or octanoylguanosine (5.0 μmoles/mouse/day in 0.5% Tween 80). On day 7 following CP administration all 10 animals from each of the 3 groups were bled and then sacrificed by cervical dislocation. Spleens were removed, weighed, and fixed in 10% formalin for later histological examination. Complete blood cell counts were performed on the collected blood.
# [4] = system: hematopoietic recovery after cyclophosphamide; experiment: Surfactants, hematopoietic recovery after cyclophosphamide (Example 58); format: in vivo, Balb/C mice; conditions: day 7
# Method: Twenty-four hours later and each day thereafter for a total of 6 days, mice were divided into seven groups and given a 0.4 ml i.p. injection of either physiological saline (controls), Tween 80 at each of three concentrations (0.02%, 0.2% and 1%) or octanoylguanosine (50 mg/kg/dose) in three different concentrations of Tween 80 (0.02%, 0.2% and 1%). On day 7 following CP administration all 9 animals from each of the […] were bled and then sacrificed by cervical dislocation. Spleens were removed and weighed, and complete blood cell counts performed.
# [5] = system: hematopoietic recovery after cyclophosphamide; experiment: Hematopoietic recovery after cyclophosphamide (Example 37); format: in vivo, Balb/C mice; conditions: 5 μmoles/mouse/day i.p. 6 days; day 7; vs saline
# Method: Twenty-four hours later and each day thereafter for a total of 6 days, mice were given a 0.4 ml i.p. injection of either physiological saline (controls), guanine (5 μmoles/mouse/day), or guanosine (5 μmoles/mouse/day). On day 7 all 10 mice in each of the three groups were bled, and then sacrificed by cervical dislocation. Spleens were removed and weighed, and complete blood cell counts performed.
# [6] = system: leukocytes; conditions: 100 mg i.p.; after 10 hours and for 24 hours thereafter; cited from earlier work
# [7] = system: human myeloid leukemia cell line (HL-60); conditions: HL-60 with inducing agents; cited from earlier work
# [8] = system: hematopoietic recovery after cyclophosphamide; experiment: Hematopoietic recovery after cyclophosphamide (Example 59); format: in vivo, Balb/C mice; conditions: days 5 and 7; 25 mg/kg/day i.p.
# Method: Cyclophosphamide (CP) (275 mg/kg, i.p.) was administered to 28 Balb/C female mice weighing approximately 20 grams each. Twenty-four hours later and each day for 4 days thereafter, mice were given a 0.4 ml i.p. injection of either physiological saline (controls) or palmitoyl-8-aminoguanosine (25 mg/kg/day in 0.2% Tween 80). On days 5 and 7 following CP administration 7 animals from each of the 2 groups were bled and then were sacrificed by cervical dislocation. Spleens were removed and weighed, and complete blood cell counts performed.
# [9] = system: hematopoietic recovery after cyclophosphamide; experiment: Hematopoietic recovery after cyclophosphamide (Example 51); format: in vivo, Balb/C mice; conditions: day 5; 2 μmoles/mouse
# Method: Cyclophosphamide (CP) (275 mg/kg, i.p.) was administered to 88 Balb/C female mice weighing approximately 20 grams each. Twenty-four hours later and each day thereafter mice were given a 0.4 ml i.p. injection of either Tween-80 (0.2%) (controls), 3'-O-palmitoyldeoxyguanosine (2 μmoles/mouse), butyryldeoxyguanosine (2 μmoles/mouse), palmitoyl-N-isobutyryldeoxyguanosine (2 μmoles/mouse), lauryldeoxyguanosine (2 μmoles/mouse), octanoyldeoxyguanosine (2 μmoles/mouse), and palmitoyldeoxyguanosine (2 μmoles/mouse). On days 5 and 7 following CP administration 6 or 7 animals in each of the 7 groups were bled and then sacrificed by cervical dislocation. Spleens were removed and weighed, and complete blood cell counts performed.
# [10] = system: hematopoietic recovery after cyclophosphamide; experiment: Dose-response, hematopoietic recovery after cyclophosphamide (Example 52); format: in vivo, Balb/C mice; conditions: days 5 and 7; 0.2-2.0 μmoles/mouse, except 0.2 on day 5
# Method: (§1) Cyclophosphamide (CP) (275 mg/kg, i.p.) was administered to 85 Balb/C female mice weighing approximately 20 grams each. Twenty-four hours later and each day thereafter mice were given a 0.4 ml i.p. injection of either physiological saline (controls), or palmitoyldeoxyguanosine at one of four different doses: 0.2, 0.4, 1.0 or 2.0 μmoles/mouse). On days 5 and 7 following CP administration 9 and 8 animals, respectively, in each of the 5 groups were bled and then sacrificed by cervical dislocation. Spleens were removed and weighed, and complete blood cell counts performed.
# [11] = system: hematopoietic recovery after cyclophosphamide; experiment: Comparative dose-response, hematopoietic recovery after cyclophosphamide (Example 53); format: in vivo, Balb/C mice
# Method: as §1, with “to 96” for “to 85”, “(controls), palmitoylguanosine” for “(controls), or palmitoyldeoxyguanosine”, “2.0 μmoles/mouse), or palmitoyldeoxyguanosine at a dose of 1.0 μmoles/mouse.” for “2.0 μmoles/mouse).”, “administration” for “administration 9 and”, “8 animals from” for “8 animals, respectively, in”, “the 6” for “the 5”
# [12] = system: hematopoietic recovery after cyclophosphamide; experiment: Dose-response, hematopoietic recovery after cyclophosphamide (Example 54); format: in vivo, Balb/C mice
# Method: Cyclophosphamide (CP) (275 mg/kg, i.p.) was administered to 112 Balb/C female mice weighing approximately 20 grams each. Twenty-four hours later and each day thereafter mice were given a 0.4 ml i.p. injection of either physiological saline (controls), or palmitoyldeoxyguanosine at one of six different doses: 0.04, 0.08, 0.2, 0.4, 0.6 or 0.8 μmoles/mouse. On days 5 and 7 following CP administration 8 animals from each of the 7 groups were bled and then sacrificed by cervical dislocation. Spleens were removed and weighed, and complete blood cell counts performed.
# [13] = system: hematopoietic recovery after cyclophosphamide; experiment: Recovery of blood cell counts in rats after cyclophosphamide (Example 55); format: in vivo, F344 rats
# Method: Cyclophosphamide (CP) (40 mg/kg, i.p.) was administered to 16 F344 male rats weighing approximately 200 grams each. Twenty-four hours later and each day thereafter rats were given a 0.5 ml i.p. injection of either physiological saline (controls), or palmitoyldeoxyguanosine at a dose of […]. On days 5, 7 and 10 following CP administration all 8 animals from both groups were bled and complete blood cell counts performed. On day 10 all of the rats were sacrificed and their spleens removed and weighed.
# [14] = system: hematopoiesis in normal mice; experiment: Hematopoiesis in normal mice (Example 56); format: in vivo, Balb/C mice; conditions: day 5, 2.6 μmoles/mouse, 4 days
# Method: Normal Balb/C female mice weighing approximately 20 grams each were given a daily 0.4 ml i.p. injection of either physiological saline (controls), palmitoylguanosine (2.6 μmoles/mouse), palmitoyldeoxyguanosine (2.6 μmoles/mouse), monopalmitoylguanosine 2',3'-acyclic dialcohol (2.6 μmoles/mouse), and palmitoyl-8-bromoguanosine (2.6 μmoles/mouse) for 4 days. On the fifth day all 3 animals in each of the 5 groups were bled and then sacrificed by cervical dislocation. Spleens were removed and weighed, and complete blood cell counts performed. Femoral bone marrow from each mouse was collected and a differential cell count performed on marrow smears.
# [15] = system: hematopoietic recovery from fluorouracil; experiment: Pretreatment, hematopoietic recovery from fluorouracil (Example 57); format: in vivo, Balb/C mice
# Method: Twenty-eight female Balb/C mice weighing approximately 20 grams each received a 0.4 ml i.p. injection of either physiological saline (controls), or palmitoyldeoxyguanosine (1 μmole/mouse) daily for three days. On the fourth day 5-flourouracil (5-FU) (150 mg/kg, i.p.) was administered to all 28 of the animals. On days 5, 8 and 11 following 5-FU administration 4 (day 5) or 5 (days 8 and 11) animals from both groups were bled and then sacrificed by cervical dislocation. Spleens were removed and weighed, and complete blood cell counts performed.
# [16] = system: Interleukin-3 dependent bone marrow cells; conditions: 10 micrograms per milliliter
# Method: Bone marrow cells were obtained by flushing the femurs of three male B6D2F1 mice. The cells were plated at 5.0×10^5 /ml in MEM plus 10% fetal calf serum and 25 Units/ml of recombinant IL-3 for 24-48 hours. Non-adherent cells were then separated from adherent cells and maintained for an additional twelve days. IL-3 was washed from cells, and cells were plated in MEM plus 10% fetal calf serum in the presence or absence of IL-3 and with or without the addition of palmitoyldeoxyguanosine (10 micrograms per milliliter) or deoxyguanosine (10 micrograms per milliliter). Cells were counted using the trypan blue exclusion method, and the percent of dead cells (trypan blue positive) was determined at 24, 40, 60 and 84 hours following the wash.
# [17] = day 5, palmitoylguanosine 2.0, palmitoyldeoxyguanosine 1.0 μmoles/mouse
# [18] = day 7, palmitoylguanosine 1.0 and 2.0, palmitoyldeoxyguanosine 1.0 μmoles/mouse
smiles,measurement,setting,value
CCCCCCCC(=O)OC[C@H]1O[C@@H](n2cnc3c(=O)[nH]c(N)nc32)[C@H](O)[C@@H]1O,spleen weight,[1],significantly larger spleens
same,spleen weight,"[2]; day 7, 0.5, 2.5 or 5 μmoles/mouse/day, vs controls and Tween 80",significantly larger spleens
same,spleen size,"[2]; day 7, highest dose (10 μmoles)",largest spleens
same,total number of leukocytes,"[2]; day 7, vs control",significantly increased above control values in a dose-dependent manner
same,total number of neutrophils,"[2]; day 7, vs control",significantly increased above control values in a dose-dependent manner
same,accelerating regeneration of hematopoiesis,[2]; middle dose 2.5 μmoles,nearly as effective as the highest dose
same,spleen weight,"[3]; Tween 80 0.5%, octanoylguanosine 5.0 μmoles/mouse/day",significantly greater
same,Neutrophils,[3]; vs control or Tween 80,significantly greater numbers
same,peripheral white blood cells (WBC),[3]; vs control or Tween 80,significantly greater numbers
same,histological examination of spleens,[3]; vs saline and Tween 80,much greater lymphopoiesis (increased white pulp) and myelopoiesis (increased red pulp)
same,neutrophil counts,"[4]; 50 mg/kg in 0.02% and 0.2% Tween 80, vs saline",significantly different from controls
same,neutrophil counts,[4]; 50 mg/kg in 0.2% vs in 0.02% Tween 80,significantly higher
Nc1nc2c(ncn2[C@@H]2O[C@H](CO)[C@@H](O)[C@H]2O)c(=O)[nH]1 [guanosine],Neutrophils,[5],significantly more
same,spleen weight,[5],significantly heavier spleens
same,total white blood cells,[5],significantly more
same,spleen weight,[1],No significant difference
same,"leukocyte counts, leukocytosis",[6],"11,000 per mm^3"
same,effect on induced maturation of HL-60 cells,[7],prevented their induced maturation into functional neutrophils
CCCCCCCCCCCCCCCC(=O)OC[C@H]1O[C@@H](n2c(N)nc3c(=O)[nH]c(N)nc32)[C@H](O)[C@@H]1O [palmitoyl-8-aminoguanosine],Neutrophils,[8],significantly elevated
same,spleen weight,[8],significantly elevated
CCCCCCCCCCCCCCCC(=O)OC[C@H]1O[C@@H](n2cnc3c(=O)[nH]c(N)nc32)C[C@@H]1O [palmitoyldeoxyguanosine],spleen weight,[9],significantly elevated
same,total neutrophil counts,[9],significantly elevated
same,white blood cell counts,[9],significantly elevated
same,spleen weight,[10],significantly elevated
same,total neutrophil counts,[10],significantly elevated
same,white blood cell counts,[10],significantly elevated
same,spleen weight,[11]; [17],significantly elevated
same,total neutrophil counts,[11]; [17],significantly elevated
same,white blood cell counts,[11]; [17],significantly elevated
same,spleen weight,[11]; [18],significantly elevated
same,total neutrophil counts,[11]; [18],significantly elevated
same,white blood cell counts,[11]; [18],significantly elevated
same,relative potency in elevating spleen weight and cell counts,[11]; vs palmitoylguanosine,more potent in elevating these parameters than the same or even a 2-fold greater dose of palmitoylguanosine
same,spleen weight,"[12]; day 5, 0.2 μmoles/mouse or greater",significantly elevated
same,white blood cell counts,"[12]; day 5, 0.4 μmoles/mouse or greater",significantly elevated
same,white blood cell counts,"[12]; day 7, all doses",statistically significant differences were seen at all doses
same,spleen weight,"[12]; day 7, all doses except 0.04 μmoles/mouse",significantly elevated
same,total neutrophil counts,"[12]; days 5 and 7, all 6 doses",significantly elevated
same,Lymphocytes,"[13]; day 10, i.p.",significantly elevated
same,Platelets,"[13]; day 10, i.p.",significantly elevated
same,spleen weight,"[13]; day 10, i.p.",significantly elevated
same,total neutrophil counts,"[13]; days 5, 7 and 10, i.p.",significantly elevated
same,white blood cell counts,"[13]; days 5, 7 and 10, i.p.",significantly elevated
same,spleen weight,[14],significantly elevated
same,number of myelocytes,[14]; femoral bone marrow,significantly greater
same,platelet counts,"[15]; day 5, 1 μmole/mouse, 3 days before 5-FU",significantly elevated
same,platelet counts,[15]; day 8,significantly higher
same,spleen weight,[15]; day 8,significantly higher
same,total neutrophil counts,[15]; day 8,significantly higher
same,lymphocyte counts,[15]; day 11,significantly higher
same,platelet counts,[15]; day 11,significantly higher
same,spleen weights,[15]; day 11,significantly higher
same,total neutrophil counts,[15]; day 11,significantly higher
same,total white blood cell counts,[15]; day 11,significantly higher
same,prevention of apoptotic cell death due to IL-3 deprivation,[16],significantly reduced the percentage of dead cells
